Source: patent US20240132484A1, “BROAD SPECTRUM ANTIVIRAL COMPOUNDS TARGETING THE SKI COMPLEX” (priority 2020, published 2024)
Where “and” joins values, the source holds several entries; their conditions need not be identical. Identical values can stand only once. Like-named read-outs stand apart in the source and are kept apart here.

Experiments:
[1] = test system: Marburg virus Angola strain (MARV); assay: organism not typed; assay type: cell-based; details: Huh-7, 48 h, read-out: IC50 against MARV
Influenza virus = assay: organism not typed; assay type: cell-based, influenza A virus; details: for Flu titer (pfu/ml): plaque assay
IAV NS1 protein = assay type: cell-based, influenza A virus
MERS-CoV = assay: microbe, parasite or virus in culture; assay type: cell-based; details: Middle East respiratory syndrome-related coronavirus, Huh-7, 24 h, read-out: IC50 against MERS-CoV
Huh7 cells = details: antiviral concentrations, 24 h
IAV NS1 mRNA = assay type: cell-based, influenza A virus
A549 cells = details: antiviral concentrations, 24 h
[2] = test system: Ebola virus Makona strain (EBOV); assay: microbe, parasite or virus in culture; assay type: cell-based; details: Zaire ebolavirus, Huh-7, 48 h, read-out: IC50 against EBOV
WDR61 = WDR61 (Homo sapiens, UniProt Q9GZS3); assay: Surface Plasmon Resonance with pure WDR61 protein
SARS2 = assay type: cell-based, SARS-CoV-2

**Q.** What does the source list for COc1ccc(CNCCc2ccccc2F)c(OCC(O)CN2CCN(C)CC2)c1 (stereo not drawn) [UMB18, 1-[2-({[2-(2-fluorophenyl)ethyl]amino}methyl)-5-methoxyphenoxy]-3-(4-methyl-1-piperazinyl)-2-propanol]?
**A.** IC50 [1]: ~16 µM; 10 μM treatment, Average (Influenza virus; 10 μM treatment, average of replicates): 11250 and 1250 and 2000 and 18000; 10 μM treatment (Influenza virus; 10 μM treatment, replicate 2): 12000 and 1000 and 35000; 10 μM treatment (Influenza virus; 10 μM treatment, replicate 3): 1000 and 2000; 10 μM treatment (Influenza virus; 10 μM treatment, replicate 4): 5000 and 1000; 50 μM treatment Average (Influenza virus; 50 μM compound, average of replicates): 1000 and 333.3 and 0 (2×); 50 μM treatment (Influenza virus; 50 μM compound, replicate 1, DMSO (0.5%) control run per batch): 0; 50 μM treatment (Influenza virus; 50 μM compound, replicate 2): 3000 and 0 (2×); 50 μM treatment (third value column) (Influenza virus; 50 μM compound, replicate 3): 0 and 1000; 50 μM treatment (fourth value column) (Influenza virus; 50 μM compound, replicate 4): 1000; time of addition: inhibition of IAV when drug added 2 h after infection (Influenza virus; +2 h versus -2 h and 0 h): marked reduction in the level of inhibition; IC50 (Influenza virus; A549, 24 h, read-out: IC50 against IAV): ~5 µM; antiviral activity against IAV infection (Influenza virus; screening, A549 cells): showed antiviral activity against influenza; NS1 protein by western blot (IAV NS1 protein): lack of NS1 protein; IC50 (MERS-CoV): ~5 µM; toxicity by CellTiter-Glo assay (Huh7 cells): minimal toxicity; IAV NS1 mRNA (IAV NS1 mRNA): marked reduction in mRNA; toxicity by CellTiter-Glo assay (A549 cells): minimal toxicity; IC50 [2]: ~5 µM

**Q.** How did the “direct binding to WDR61 by SPR” value (WDR61) turn out when CN1CCN(CC(O)COc2c(CNCCc3ccccc3F)cccc2C2CCCCC2)CC1 (stereo not drawn) [SILCS4] was run?
**A.** Its value is “binding directly to WDR61”.

**Q.** And the “Relative cell count to DMSO controls, Average 1 μM” value (cells (nuclei count); 1 μM, toxicity data, 100=DMSO control)?
**A.** The value was 116.22.

**Q.** What about the “Relative cell count to DMSO controls, Average 5 μM” value (cells (nuclei count); 5 μM, toxicity data, 100=DMSO control) of the same molecule?
**A.** Its value is 123.91.

**Q.** What about the “Relative cell count to DMSO controls, Average 10 μM” value (cells (nuclei count); 10 μM, toxicity data, 100=DMSO control) of the same molecule?
**A.** Its value is 122.04.

**Q.** And the “Relative cell count to DMSO controls, Average 25 μM” value (cells (nuclei count); 25 μM, toxicity data, 100=DMSO control)?
**A.** The value was 3.91.

**Q.** What about the “Relative cell count to DMSO controls, Average 50 μM” value (cells (nuclei count); 50 μM, toxicity data, 100=DMSO control) of the same molecule?
**A.** The value was 2.18.

**Q.** And the “Toxicity Data, Average, Mean (relative to DMSO control)” value (cells (nuclei count); Average of Exp 1-3, 1 uM)?
**A.** The value was 116.22%.

**Q.** And the “Toxicity Data, Average, Mean (relative to DMSO control)” value (cells (nuclei count); Average of Exp 1-3, 5 uM)?
**A.** Its value is 123.91%.

**Q.** What about the “Toxicity Data, Average, Mean (relative to DMSO control)” value (cells (nuclei count); Average of Exp 1-3, 10 uM) of the same molecule?
**A.** Its value is 122.04%.

**Q.** And the “Toxicity Data, Average, Mean (relative to DMSO control)” value (cells (nuclei count); Average of Exp 1-3, 25 uM)?
**A.** Its value is 3.91%.

**Q.** And the “Toxicity Data, Average, Mean (relative to DMSO control)” value (cells (nuclei count); Average of Exp 1-3, 50 uM)?
**A.** The value was 2.18%.

**Q.** What about the “Relative cell count to DMSO controls, Average (for correlation analysis)” value (cells (nuclei count); average value over the 5 tested concentrations (1 to 50 uM)) of the same molecule?
**A.** Its value is 73.65.

**Q.** What about the “Percentage Inhibition Average 1 μM” value (SARS2; SARS2, 1 μM) of the same molecule?
**A.** Its value is 17.51%.

**Q.** What about the “Screening data (Relative infection to DMSO controls) Average 1 μM” value (SARS2; SARS2, 1 μM, 100=DMSO control) of the same molecule?
**A.** The value was 82.49.

**Q.** What about the “Percentage Inhibition Average 5 μM” value (SARS2; SARS2, 5 μM) of the same molecule?
**A.** Its value is 59.94%.

**Q.** What about the “Screening data (Relative infection to DMSO controls) Average 5 μM” value (SARS2; SARS2, 5 μM, 100=DMSO control) of the same molecule?
**A.** The value was 40.06.

**Q.** And the “Percentage Inhibition Average 10 μM” value (SARS2; SARS2, 10 μM)?
**A.** Its value is 86.21%.

**Q.** What about the “Screening data (Relative infection to DMSO controls) Average 10 μM” value (SARS2; SARS2, 10 μM, 100=DMSO control) of the same molecule?
**A.** The value was 13.79.

**Q.** And the “Percentage Inhibition Average 25 μM” value (SARS2; SARS2, 25 μM)?
**A.** The value was 81.29%.

**Q.** And the “Screening data (Relative infection to DMSO controls) Average 25 μM” value (SARS2; SARS2, 25 μM, 100=DMSO control)?
**A.** Its value is 18.71.

**Q.** What about the “Percentage Inhibition Average 50 μM” value (SARS2; SARS2, 50 μM) of the same molecule?
**A.** The value was 90.83%.

**Q.** What about the “Screening data (Relative infection to DMSO controls) Average 50 μM” value (SARS2; SARS2, 50 μM, 100=DMSO control) of the same molecule?
**A.** The value was 9.17.

**Q.** What about the “Average (relative infection to DMSO over the 5 tested concentrations)” value (SARS2; SARS2, average over 1 to 50 uM, 100=DMSO control) of the same molecule?
**A.** Its value is 32.84.

**Q.** With CC#CC(=O)NCc1nc(-c2ccccc2NC(=O)CCOc2ccccc2)oc1C [Compound 17295424, N-[(5-methyl-2-{2-[(3-phenoxypropanoyl)amino]phenyl}-1,3-oxazol-4-yl)methyl]-2-butynamide] as the molecule, how does the “Flu titer (pfu/ml)” value (Influenza virus; 1 μM compound, A549 cells) read?
**A.** Its value is 44000 pfu/ml.

**Q.** What about the “Flu titer (pfu/ml)” value (Influenza virus; 10 μM compound, A549 cells) of the same molecule?
**A.** Its value is 68000 pfu/ml.

**Q.** What about the “Flu titer (pfu/ml)” value (Influenza virus; 50 μM compound, A549 cells) of the same molecule?
**A.** Its value is 64000 pfu/ml.
